In patent publication US20060211624A1, “Methods and compositions for the treatment of parkinson's disease and other alpha-synucleinopathies” (Goverment of the US, as Represented by, priority 2003, published 2006):
Blank lines part the entries; values can stand above or below the molecule they belong to.

Columns and labels:
[1] = molecular target: T1, tTGase (Homo sapiens, UniProt P21980); assay: tTGase-induced α-synuclein aggregation in transfected COS-7 cells (detergent-insoluble fraction, Western blot); format: cell-based
T1 construct: expressed in transfected cells; host or cells: COS-7 (A2); HEK293T (A3); pSG5 expression vector
T1 sequence (P21980 1-687): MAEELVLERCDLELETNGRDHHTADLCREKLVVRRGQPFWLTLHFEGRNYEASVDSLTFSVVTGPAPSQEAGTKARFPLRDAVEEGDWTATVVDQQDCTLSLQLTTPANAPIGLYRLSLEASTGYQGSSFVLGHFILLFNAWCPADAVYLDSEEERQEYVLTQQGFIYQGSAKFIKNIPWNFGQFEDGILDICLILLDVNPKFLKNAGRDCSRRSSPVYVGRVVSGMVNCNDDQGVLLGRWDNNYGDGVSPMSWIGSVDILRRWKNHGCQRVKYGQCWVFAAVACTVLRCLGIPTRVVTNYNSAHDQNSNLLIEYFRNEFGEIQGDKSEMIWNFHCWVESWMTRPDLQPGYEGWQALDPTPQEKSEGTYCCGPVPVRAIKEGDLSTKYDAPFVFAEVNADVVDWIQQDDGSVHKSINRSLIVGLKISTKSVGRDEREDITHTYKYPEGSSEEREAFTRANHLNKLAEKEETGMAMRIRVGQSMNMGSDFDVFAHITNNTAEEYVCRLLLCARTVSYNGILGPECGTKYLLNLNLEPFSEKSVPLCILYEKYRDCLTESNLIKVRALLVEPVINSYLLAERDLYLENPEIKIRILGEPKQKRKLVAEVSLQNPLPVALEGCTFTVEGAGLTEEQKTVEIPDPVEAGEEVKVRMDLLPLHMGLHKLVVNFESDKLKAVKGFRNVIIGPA
Protocol: Suitable tTGase inhibitor compounds for use in the treatment methods and compositions of the invention can be also be assessed by a protocol referred to herein as ‘a standard in vivo tTGase inhibition assay’, set forth as follows: Cells (e.g., neurons, COS-7 cells, or HEK […] cells) are co-transfected with an α-synuclein and tTGase expression plasmids (1 μg each) using FuGene 6 reagent (Roche Molecular Biochemicals, Indianapolis, Ind.) for 6 hours and cultured in DMEM containing 10% FBS for 48 hours. Cells are then lysed in a buffer containing PBS with 1% Triton X-100 and a mixture of protease inhibitors (Roche Molecular Biochemicals). Cells are homogenized with 20 strokes in a Dounce homogenizer, centrifuged at 20,000×g at 4° C. for 30 minutes. The detergent-insoluble fraction is used in Western blot analysis using an anti-α-synuclein antibody as described above for the standard in vitro assay. The cells in the assay can be cultured in the presence or absence of a candidate compound to determine whether the candidate compound can inhibit the production of the high-molecular weight aggregates. This defined standard in vivo tTGase inhibition assay is exemplified in Examples 1 and 2 (including the materials and methods section) which follows.
α-Synuclein cDNA was cloned by PCR from human fetal brain cDNA library (Stratagene, La Jolla, Calif.) (Bennett, M. C. et al. (1999) J. Biol. Chem. 274:33855-33858) and subcloned into pcDNA3.1 (Invitrogen, Carlsbad, Calif.), and pTYB11 (New England Biolabs, Beverly, Mass.). tTGase cDNA was amplified by PCR from human liver cDNA library by using primers 5′-aagaattc[…]-3′ (SEQ ID NO:1) and 5′-aagaattc[…]-3′ (SEQ ID NO:2). Lowercase letters indicate additional nucleotides designed to facilitate cloning. The PCR product was inserted into pSG5 expression vector (Stratagene), and its sequence matched perfectly with the known cDNA sequence of human tTGase (Gentile, V. et al. (1991) J. Biol. Chem. 266:478-483). […] Mouse monoclonal tTGase antibody (CUB 7402) was purchased from DAKO (Carpinteria, Calif.). The rabbit polyclonal tTGase antibody was described in Kim. S. Y. et al. (1999) J. Biol. Chem. 274:30715-30721. Guinea pig liver tTGase, cystamine (CTM), and A23187 were purchased from Sigma (St. Louis, Mo.). Rabbit polyclonal α-synuclein antibodies were obtained from Sigma and Chemicon (Temecula, Calif.). Monoclonal anti-α-synuclein antibodies, SYN-1 and LB509, were from Transduction Laboratories (Lexington, Ky.) and Zymed (South San Francisco, Calif.), respectively. Monoclonal antibody recognizing ε(γ-glutamyl) lysine isodipeptide bonds (81D1C2) was purchased from Covalab (Lyon, France). Recombinant human α-synuclein protein was expressed in pTYB11 and purified by the IMPACT T7 system (New England Biolabs) according to the supplier's instructions.
(§1) COS-7 and human embryonic kidney (HEK) 293T cell lines were maintained in DMEM containing 10% FBS. Transfections were performed by using FuGene 6 reagent (Roche Molecular Biochemicals, Indianapolis, Ind.) for a 6 hour incubation period, and then treatments were initiated.
Cells were lysed in a buffer containing PBS with 1% Triton X-100 and a mixture of protease inhibitors (Roche Molecular Biochemicals). […] Immunoprecipitates were analyzed by Western blots with antiisodipeptide antibody (81D1C2) or anti-α-synuclein antibody SYN-1 with the ECL detection system (NEN, Boston, Mass.). […]

[2] = molecular target: T1, tTGase; assay: tTGase-induced α-synuclein aggregates by immunocytochemistry in transfected HEK293T cells; format: cell-based; settings: 48 hours
Protocol: FIG. 1 depicts α-Synuclein the detection of aggregates by immunocytochemistry. HEK293T cells transiently transfected with α-synuclein in the absence or presence of tTGase were treated with CTM (100 μM, 200 μM) or A23187 (0.1 μg/ml) for 48 hours and stained for α-synuclein and tTGase. Aggregate-containing cells among transfected cells were counted in 10 randomly selected fields. Each microscopic field had 10-20 transfected cells. The data represent means±SEM. Significance levels determined by factorial ANOVA and the Bonferroni post hoc test are shown. *, P<0.002; * *, P<0.06; * * *, P<0.02.
as §1
HEK 293T cells transiently transfected as described in the Examples below were cultured in the presence or absence of indicated chemicals in collagen-coated Biocoat slides (Becton Dickinson, Bedford, Mass.) for 48 hours. […] Cells were washed five times with PBS and analyzed under a fluorescence microscope (Axiophot, Zeiss, Thornwood, N.Y.). For quantification of inclusions, 10 microscopic fields were randomly selected, and the percentage of inclusion-positive cells was counted among transfected cells. […]

[3] = molecular target: T2, guinea pig liver tTGase (Cavia cutleri, UniProt P08587); assay: In vitro cross-linking reaction of α-synuclein by tTGase (SDS/PAGE, Western blot); format: biochemical; settings: 37° C., 2 hours
T2 construct: purified guinea pig liver tTGase (10 nM); purchased Sigma (St. Louis, Mo.); host or cells: guinea pig liver
T2 sequence (P08587 1-690): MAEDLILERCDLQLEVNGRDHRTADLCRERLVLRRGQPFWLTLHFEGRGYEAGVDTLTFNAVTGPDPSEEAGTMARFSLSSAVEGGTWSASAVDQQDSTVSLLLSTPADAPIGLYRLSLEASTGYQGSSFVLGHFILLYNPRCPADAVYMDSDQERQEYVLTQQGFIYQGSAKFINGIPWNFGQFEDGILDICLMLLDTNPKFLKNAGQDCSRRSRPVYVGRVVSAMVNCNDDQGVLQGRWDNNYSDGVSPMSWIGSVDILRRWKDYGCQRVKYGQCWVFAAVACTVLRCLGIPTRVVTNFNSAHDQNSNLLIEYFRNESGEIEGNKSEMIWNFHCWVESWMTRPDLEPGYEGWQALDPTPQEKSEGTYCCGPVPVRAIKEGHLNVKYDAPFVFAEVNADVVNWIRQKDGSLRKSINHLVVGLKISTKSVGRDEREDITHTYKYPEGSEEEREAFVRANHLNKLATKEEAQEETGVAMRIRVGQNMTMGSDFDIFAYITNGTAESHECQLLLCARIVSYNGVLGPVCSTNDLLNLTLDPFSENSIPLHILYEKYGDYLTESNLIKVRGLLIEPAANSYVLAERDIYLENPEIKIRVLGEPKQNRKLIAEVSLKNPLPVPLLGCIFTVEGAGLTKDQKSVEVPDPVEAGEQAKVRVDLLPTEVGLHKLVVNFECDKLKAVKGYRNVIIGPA
Protocol: Suitable tTGase inhibitor compounds for use in the treatment methods and compositions of the invention can be assessed by straightforward protocols, such as the following. […] The reaction products are then analyzed by standard SDS/PAGE and Western blot using an anti-α-synuclein antibody (e.g., rabbit polyclonal antibodies, available from Sigma or Chemicon (Temecula, Calif.); or monoclonal antibodies such as SYN-1 or LB509, available from Signal Transduction Laboratories (Lexington, Ky.) and Zymed (South San Francisco, Calif.), respectively). […]
The reaction was performed at 37° C. for 2 hours in a buffer containing 50 mM Tris-HCl (pH 7.5), 2 mM leupeptin, and 1 mM purified α-synuclein. […] The reaction was stopped by the addition of 20 mM EDTA, and products were analyzed by SDS/PAGE followed by Western blot.
To study the in vitro cross-linking of α-synuclein, purified recombinant human α-synuclein protein was incubated with guinea pig liver tTGase for 2 hours at 37° C., and the reaction products were analyzed by SDS/PAGE, followed by Western blotting with anti-α-synuclein antibody. […]

[4] = delayed treatment, 200 μM during the final 48 hours of 96 hours, COS-7

SMILES: CNc1ccc2oc(C[C@H]3O[C@@]4(CC[C@H]3C)O[C@H]([C@H](C)C(=O)c3ccc[nH]3)[C@H](C)C[C@H]4C)nc2c1C(=O)O [A23187]
high molecular weight bands of α-synuclein ([1]; COS-7 cells transfected with only α-synuclein, 0.1 μg/ml): some high molecular weight bands
formation of α-synuclein aggregates ([1]; α-synuclein- and tTGase-transfected COS-7 cells, 0.1 μg/ml): significant increase
aggregate formation (aggregate-containing cells among transfected cells) ([2]; HEK293T cells, 0.1 μg/ml): significantly increased

further de novo aggregation occurring during the final 48 hours [1, 4]: inhibited further de novo aggregation
level of aggregates formed during the initial 48 hours (preformed aggregates) [1, 4]: did not diminish
formation of tTGase-induced α-synuclein aggregates ([1]; α-synuclein- and tTGase-transfected COS-7 cells, 200 μM for 48 hours): dramatically inhibited
inclusion formation (aggregate-containing cells among transfected cells) ([2]; HEK293T cells coexpressing α-synuclein and tTGase, 100 μM, 200 μM): decreased inclusion formation
SMILES: NCCSSCCN [CTM, cystamine]

SMILES: [Ca+2].[Cl-].[Cl-] [CaCl2]
generation of high molecular weight aggregates of α-synuclein ([3]; addition of CaCl2 (5 mM), tTGase 10 nM, DTT 0.1 mM): significantly enhanced

SMILES: O=C(O)CN(CCN(CC(=O)O)CC(=O)O)CC(=O)O [EDTA]
aggregate formation (α-synuclein) ([3]; chelation with EDTA (0.1 mM, 5 mM)): dose-dependently blocked
